Assay results published in patent publication US7772241B2, “Variolin derivatives and their use as antitumor agents” (Pharma Mar S.A., priority 2001, dated 2010).

How the values were obtained:
A-549 = experiment: Inhibition of cells growth by colorimetric (SRB) assay, A-549; settings: for GI50 / CC50: Homo sapiens, A549, 48 h; for GI50: read-out: GI50 A-549, SRB assay, 48 hours exposure; for CC50: read-out: LC50 A-549, SRB assay, 48 hours exposure; for TGI A-549: SRB assay, 48 hours exposure
Procedure, shortened: (§1)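 Human tumour cells in RPMI 1640 with 10% FBS were seeded at 5×10^3 cells/well, allowed to attach for 18 h, then exposed to samples at 10 to 10^−8 μg/ml for 48 h. Growth was measured by SRB staining after TCA fixation, with absorbance read at 490 nm in triplicate wells.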

SK-BR-3 = experiment: Inhibition of cells growth by colorimetric (SRB) assay, SK-BR-3; settings: for GI50 / CC50: Homo sapiens, SK-BR-3, 48 h; for GI50: read-out: GI50 SK-BR-3, SRB assay, 48 hours exposure; for CC50: read-out: LC50 SK-BR-3, SRB assay, 48 hours exposure; for TGI SK-BR-3: SRB assay, 48 hours exposure
Procedure, shortened: as §1

SK-OV-3 = experiment: Inhibition of cells growth by colorimetric (SRB) assay, SK-OV-3; settings: for GI50 / CC50: Homo sapiens, SK-OV-3, 48 h; for GI50: read-out: GI50 SKOV-3, SRB assay, 48 hours exposure; for CC50: read-out: LC50 SKOV-3, SRB assay, 48 hours exposure; for TGI SKOV-3: SRB assay, 48 hours exposure
Procedure, shortened: as §1

IGROV-1 = experiment: Inhibition of cells growth by colorimetric (SRB) assay, IGROV-1; settings: for GI50 / CC50: Homo sapiens, IGROV-1, 48 h; for GI50: read-out: GI50 IGROV, SRB assay, 48 hours exposure; for CC50: read-out: LC50 IGROV, SRB assay, 48 hours exposure; for TGI IGROV: SRB assay, 48 hours exposure
Procedure, shortened: as §1

IGROV-ET = experiment: Inhibition of cells growth by colorimetric (SRB) assay, IGROV-ET; settings: for GI50 / CC50: Homo sapiens, 48 h; for GI50: read-out: GI50 IGROV-ET, SRB assay, 48 hours exposure; for CC50: read-out: LC50 IGROV-ET, SRB assay, 48 hours exposure; for TGI IGROV-ET: SRB assay, 48 hours exposure
Procedure, shortened: as §1

LoVo-Dox = experiment: Inhibition of cells growth by colorimetric (SRB) assay, LoVo-Dox; settings: for GI50 / CC50: Homo sapiens, 48 h; for GI50: read-out: GI50 LOVO-DOX, SRB assay, 48 hours exposure; for CC50: read-out: LC50 LOVO-DOX, SRB assay, 48 hours exposure; for TGI LOVO-DOX: SRB assay, 48 hours exposure
Procedure, shortened: as §1

DU-145 = experiment: Inhibition of cells growth by colorimetric (SRB) assay, DU-145; settings: for GI50 / CC50: Homo sapiens, DU-145, 48 h; for GI50: read-out: GI50 DU-145, SRB assay, 48 hours exposure; for CC50: read-out: LC50 DU-145, SRB assay, 48 hours exposure; for TGI DU-145: SRB assay, 48 hours exposure
Procedure, shortened: as §1

HT-29 = experiment: Inhibition of cells growth by colorimetric (SRB) assay, HT-29; settings: for GI50 / CC50: Homo sapiens, HT-29, 48 h; for GI50: read-out: GI50 HT-29, SRB assay, 48 hours exposure; for CC50: read-out: LC50 HT-29, SRB assay, 48 hours exposure; for TGI HT-29: SRB assay, 48 hours exposure
Procedure, shortened: as §1

LNCaP = experiment: Inhibition of cells growth by colorimetric (SRB) assay, LNCaP; settings: for GI50 / CC50: Homo sapiens, LNCaP, 48 h; for GI50: read-out: GI50 LN-caP, SRB assay, 48 hours exposure; for CC50: read-out: LC50 LN-caP, SRB assay, 48 hours exposure; for TGI LN-caP: SRB assay, 48 hours exposure
Procedure, shortened: as §1

SK-MEL-28 = experiment: Inhibition of cells growth by colorimetric (SRB) assay, SK-MEL-28; settings: for GI50 / CC50: Homo sapiens, SK-MEL-28, 48 h; for GI50: read-out: GI50 MEL-28, SRB assay, 48 hours exposure; for CC50: read-out: LC50 MEL-28, SRB assay, 48 hours exposure; for TGI MEL-28: SRB assay, 48 hours exposure
Procedure, shortened: as §1

PANC-1 = experiment: Inhibition of cells growth by colorimetric (SRB) assay, PANC-1; settings: for GI50 / CC50: Homo sapiens, PANC-1, 48 h; for GI50: read-out: GI50 PANC-1, SRB assay, 48 hours exposure; for CC50: read-out: LC50 PANC-1, SRB assay, 48 hours exposure; for TGI PANC-1: SRB assay, 48 hours exposure
Procedure, shortened: as §1

HMEC1 = experiment: Inhibition of cells growth by colorimetric (SRB) assay, HMEC1; settings: for GI50: Homo sapiens, HMEC-1, 48 h, read-out: GI50 H-MEC-1, SRB assay, 48 hours exposure; for TGI H-MEC-1: SRB assay, 48 hours exposure, in M (unit assumed)
[1] = as above; settings: human, HMEC1 cells, LC50 H-MEC-1, SRB assay, 48 hours exposure
K-562 = experiment: Inhibition of cells growth by colorimetric (SRB) assay, K-562; settings: for GI50 / CC50: Homo sapiens, K562, 48 h; for GI50: read-out: GI50 K-562, SRB assay, 48 hours exposure; for CC50: read-out: LC50 K-562, SRB assay, 48 hours exposure; for TGI K-562: SRB assay, 48 hours exposure
Procedure, shortened: as §1

LoVo = experiment: Inhibition of cells growth by colorimetric (SRB) assay, LoVo; settings: for GI50 / CC50: Homo sapiens, LoVo, 48 h; for GI50: read-out: GI50 LOVO, SRB assay, 48 hours exposure; for CC50: read-out: LC50 LOVO, SRB assay, 48 hours exposure; for TGI LOVO: SRB assay, 48 hours exposure
Procedure, shortened: as §1

In the case of Cl.Nc1nccc(-c2c3cccnc3n3c(N)nccc23)n1 [Compound 51], the GI50 (A-549) is reported as 0.0999 µM, the CC50 (A-549) is reported as 4.57 µM and the “TGI A-549” value (A-549) is reported as 3.68E−07. For the same compound, the GI50 (SK-BR-3) was 0.0591 µM, the CC50 (SK-BR-3) was 0.554 µM and the “TGI SK-BR-3” value (SK-BR-3) was 1.42E−07. The GI50 (SK-OV-3) was 0.146 µM, the CC50 (SK-OV-3) was 28.6 µM and the “TGI SKOV-3” value (SK-OV-3) was 2.15E−06. The GI50 (IGROV-1) was 0.0851 µM, the CC50 (IGROV-1) was 2.12 µM and the “TGI IGROV” value (IGROV-1) was 3.28E−07. For the same compound, the GI50 (IGROV-ET) was 0.0748 µM, the CC50 (IGROV-ET) was 18.6 µM and the “TGI IGROV-ET” value (IGROV-ET) was 2.25E−07. For the same compound, the GI50 (LoVo-Dox) was 0.078 µM, the CC50 (LoVo-Dox) was 17.9 µM and the “TGI LOVO-DOX” value (LoVo-Dox) was 2.86E−07. The GI50 (DU-145) was 0.0654 µM, the CC50 (DU-145) was 2.7 µM and the “TGI DU-145” value (DU-145) was 1.48E−07. The GI50 (HT-29) was 0.101 µM, the CC50 (HT-29) was 28.6 µM and the “TGI HT-29” value (HT-29) was 2.86E−07. The GI50 (LNCaP) was 0.0737 µM, the CC50 (LNCaP) was 0.286 µM and the “TGI LN-caP” value (LNCaP) was 1.27E−07. The GI50 (SK-MEL-28) was 0.0925 µM, the CC50 (SK-MEL-28) was 1.37 µM and the “TGI MEL-28” value (SK-MEL-28) was 2.69E−07. For the same compound, the GI50 (PANC-1) was 0.161 µM, the CC50 (PANC-1) was 28.6 µM and the “TGI PANC-1” value (PANC-1) was 2.73E−06. The GI50 (HMEC1) was 0.0164 µM, the “TGI H-MEC-1” value (HMEC1) was 1.54E−08 and the CC50 at 48 h [1] was 0.143 µM. For the same compound, the GI50 (K-562) was 0.311 µM, the CC50 (K-562) was 5.17 µM and the “TGI K-562” value (K-562) was 4.03E−07. For the same compound, the GI50 (LoVo) was 0.0774 µM, the CC50 (LoVo) was 16 µM and the “TGI LOVO” value (LoVo) was 1.84E−07.
With Nc1nccc2c(-c3cccs3)c3cccnc3n12 [Compound 65] the GI50 (A-549) was 26.4 µM, the CC50 (A-549) was no less than 37.5 µM and the “TGI A-549” value (A-549) was 3.75E−05. For the same compound, the GI50 (SK-BR-3) was 1.46 µM, the CC50 (SK-BR-3) was no less than 37.5 µM and the “TGI SK-BR-3” value (SK-BR-3) was 3.75E−05. For the same compound, the GI50 (SK-OV-3) was no less than 37.5 µM, the CC50 (SK-OV-3) was no less than 37.5 µM and the “TGI SKOV-3” value (SK-OV-3) was 3.75E−05. For the same compound, the GI50 (IGROV-1) was no less than 37.5 µM, the CC50 (IGROV-1) was no less than 37.5 µM and the “TGI IGROV” value (IGROV-1) was 3.75E−05. The GI50 (IGROV-ET) was no less than 37.5 µM, the CC50 (IGROV-ET) was no less than 37.5 µM and the “TGI IGROV-ET” value (IGROV-ET) was 3.75E−05. The GI50 (LoVo-Dox) was no less than 37.5 µM, the CC50 (LoVo-Dox) was no less than 37.5 µM and the “TGI LOVO-DOX” value (LoVo-Dox) was 3.75E−05. The GI50 (DU-145) was no less than 37.5 µM, the CC50 (DU-145) was no less than 37.5 µM and the “TGI DU-145” value (DU-145) was 3.75E−05. The GI50 (HT-29) was no less than 37.5 µM, the CC50 (HT-29) was no less than 37.5 µM and the “TGI HT-29” value (HT-29) was 3.75E−05. For the same compound, the GI50 (LNCaP) was 17.1 µM, the CC50 (LNCaP) was no less than 37.5 µM and the “TGI LN-caP” value (LNCaP) was 3.75E−05. The GI50 (SK-MEL-28) was no less than 37.5 µM, the CC50 (SK-MEL-28) was no less than 37.5 µM and the “TGI MEL-28” value (SK-MEL-28) was 3.75E−05. The GI50 (PANC-1) was no less than 37.5 µM, the CC50 (PANC-1) was no less than 37.5 µM and the “TGI PANC-1” value (PANC-1) was 3.75E−05. For the same compound, the GI50 (HMEC1) was 11.8 µM, the “TGI H-MEC-1” value (HMEC1) was 3.75E−05 and the CC50 at 48 h [1] was no less than 37.5 µM. For the same compound, the GI50 (K-562) was no less than 37.5 µM, the CC50 (K-562) was no less than 37.5 µM and the “TGI K-562” value (K-562) was 3.75E−05. For the same compound, the GI50 (LoVo) was no less than 37.5 µM, the CC50 (LoVo) was no less than 37.5 µM and the “TGI LOVO” value (LoVo) was 3.75E−05.
In the case of C[S+]([O-])c1nccc(-c2c3c(Cl)ccnc3n3c(N)nccc23)n1 (stereo not drawn) [Compound 110], the GI50 (A-549) is reported as 11 µM, the CC50 (A-549) is reported as no less than 27.9 µM and the “TGI A-549” value (A-549) is reported as 2.79E−05. The GI50 (SK-BR-3) was 0.92 µM, the CC50 (SK-BR-3) was 11.6 µM and the “TGI SK-BR-3” value (SK-BR-3) was 1.98E−06. For the same compound, the GI50 (SK-OV-3) was 11.9 µM, the CC50 (SK-OV-3) was no less than 27.9 µM and the “TGI SKOV-3” value (SK-OV-3) was 2.79E−05. For the same compound, the GI50 (IGROV-1) was 14.3 µM, the CC50 (IGROV-1) was no less than 27.9 µM and the “TGI IGROV” value (IGROV-1) was 2.79E−05. The GI50 (IGROV-ET) was 10.9 µM, the CC50 (IGROV-ET) was no less than 27.9 µM and the “TGI IGROV-ET” value (IGROV-ET) was 2.79E−05. The GI50 (LoVo-Dox) was 2.04 µM, the CC50 (LoVo-Dox) was no less than 27.9 µM and the “TGI LOVO-DOX” value (LoVo-Dox) was 1.21E−05. The GI50 (DU-145) was 2.03 µM, the CC50 (DU-145) was no less than 27.9 µM and the “TGI DU-145” value (DU-145) was 8.97E−06. For the same compound, the GI50 (HT-29) was 4.15 µM, the CC50 (HT-29) was no less than 27.9 µM and the “TGI HT-29” value (HT-29) was 2.79E−05. The GI50 (LNCaP) was 1.45 µM, the CC50 (LNCaP) was 16.7 µM and the “TGI LN-caP” value (LNCaP) was 4.71E−06. The GI50 (SK-MEL-28) was 5.55 µM, the CC50 (SK-MEL-28) was no less than 27.9 µM and the “TGI MEL-28” value (SK-MEL-28) was 2.79E−05. The GI50 (PANC-1) was 14.5 µM, the CC50 (PANC-1) was no less than 27.9 µM and the “TGI PANC-1” value (PANC-1) was 2.79E−05. For the same compound, the GI50 (HMEC1) was 1.7 µM, the “TGI H-MEC-1” value (HMEC1) was 1.08E−05 and the CC50 at 48 h [1] was no less than 27.9 µM. The GI50 (K-562) was 9.92 µM, the CC50 (K-562) was no less than 27.9 µM and the “TGI K-562” value (K-562) was 2.79E−05. For the same compound, the GI50 (LoVo) was 1.38 µM, the CC50 (LoVo) was no less than 27.9 µM and the “TGI LOVO” value (LoVo) was 6.21E−06.
